Strand notation (5' to 3'): a small letter for the sugar, then the base; units joined by * are phosphorothioate-linked, units joined directly phosphodiester-linked; [ ] holds rarer units or linkages, { } end groups; capitals alone tell only the bases. e = 2'-O-(2-methoxyethyl) (MOE); [5mC] = 5-methylcytosine; d = 2'-deoxy (DNA)
Columns and labels:
[1] = system: human PKK mRNA; assay: Dose-dependent antisense inhibition of human PKK in HepaRG cells, 0.19-5.00 uM (Example 5); format: cell-based; settings: for percent inhibition of PKK mRNA, 0.19 μM: 0.19 μM antisense oligonucleotide; for percent inhibition of PKK mRNA, 0.56 μM: 0.56 μM antisense oligonucleotide; for percent inhibition of PKK mRNA, 1.67 μM: 1.67 μM antisense oligonucleotide; for percent inhibition of PKK mRNA, 5.00 μM: 5.00 μM antisense oligonucleotide
Summary of the method: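 HepaRG cells (20,000/well) were electroporated with antisense oligonucleotide at 0.19, 0.56, 1.67 and 5.00 μM and treated for about 16 hours. PKK mRNA was quantified by qRT-PCR with primer probe set RTS3454, normalised to RIBOGREEN total RNA, and IC50 was derived per oligonucleotide.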

[2] = system: human PKK mRNA; assay: Antisense inhibition of human PKK mRNA in HepaRG cells, 5,000 nM (Example 2); format: cell-based
Summary of the method: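 HepaRG cells, 20,000 per well, were electroporated with 5,000 nM MOE gapmer (phosphorothioate, 5-methylcytosine) and incubated about 24 hours. PKK mRNA was quantified by qRT-PCR with primer probe set RTS3454, normalized to RIBOGREEN total RNA, and expressed as percent inhibition versus untreated controls.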

[3] = Table 34, HepaRG, electroporation, ~16 h
[4] = Table 34, PKK mRNA, HepaRG, electroporation, ~16 h
[5] = human PKK mRNA, HepaRG cells, 5,000 nM antisense oligonucleotide, Table 18
[6] = HepaRG cells, electroporation, approximately 16 hours, Table 35
[7] = 4 point dose response, HepaRG cells, Table 35
[8] = HepaRG cells, electroporation, approximately 16 hours, Table 39
[9] = 4 point dose response, HepaRG cells, Table 39
[10] = human PKK mRNA in HepaRG cells, 5-10-5 gapmers, Table 14
[11] = HepaRG cells, electroporation, approximately 16 hours, Table 36
[12] = 4 point dose response, HepaRG cells, Table 36
[13] = Table 13, human PKK mRNA in HepaRG cells, 5-10-5 gapmers
[14] = HepaRG cells, electroporation, approximately 16 hours, Table 40
[15] = 4 point dose response, HepaRG cells, Table 40
[16] = HepaRG cells, 5,000 nM antisense oligonucleotide, 5-10-5 gapmers, Table 16
[17] = HepaRG cells, electroporation, approximately 16 hours, Table 38

548758 (antisense e[5mC]*eA*eG*eT*dA*dT*d[5mC]*dA*d[5mC]*dT*dG*dT*dA*e[5mC]*eT*eA*eG) [compound 548758]
percent inhibition of PKK at 0.19 0μM ([1]; 0.19 0μM, HepaRG cells, electroporation, approximately 16 hours, Table 41): 0% | percent inhibition of PKK at 0.56 0μM ([1]; 0.56 0μM, HepaRG cells, electroporation, approximately 16 hours, Table 41): 72% | percent inhibition of PKK at 1.67 1μM ([1]; 1.67 1μM, HepaRG cells, electroporation, approximately 16 hours, Table 41): 79% | IC50 ([1]; 4 point dose response, HepaRG cells, Table 41): 0.6 µM | percent inhibition of PKK at 0.19 μM [1, 3]: 41% | percent inhibition of PKK at 0.56 μM [1, 3]: 47% | percent inhibition of PKK at 1.67 μM [1, 3]: 82% | percent inhibition of PKK at 5.00 μM [1, 3]: 94% | IC50 [1, 4]: 0.4 µM | % inhibition [2, 5]: 97%

547276 (antisense e[5mC]*eA*eA*eT*eT*dG*d[5mC]*dT*dT*d[5mC]*dT*dT*dG*dG*dA*eG*eG*eT*eG*eA) [compound 547276]
percent inhibition of PKK at 0.19 μM [1, 6]: 35% | percent inhibition of PKK at 0.56 μM [1, 6]: 44% | percent inhibition of PKK at 1.67 μM [1, 6]: 71% | percent inhibition of PKK at 5.00 μM [1, 6]: 77% | IC50 [1, 7]: 0.6 µM | percent inhibition of PKK mRNA, 0.19 μM ([1]; HepaRG cells): 6% | percent inhibition of PKK mRNA, 0.56 μM ([1]; HepaRG cells): 3% | percent inhibition of PKK mRNA, 1.67 μM ([1]; HepaRG cells): 53% | percent inhibition of PKK mRNA, 5.00 μM ([1]; HepaRG cells): 68% | IC50 ([1]; HepaRG cells, 0.19-5.00 μM): 2.2 µM | % inhibition ([2]; HepaRG cells, electroporation with 5,000 nM antisense oligonucleotide, approximately 24 hours, PKK mRNA by RT-PCR (RTS3454), relative to untreated control cells, Table 5 experiment): 93%

546872 (e[5mC]*eA*e[5mC]*eT*eG*dT*dA*d[5mC]*d[5mC]*dT*dA*dT*dA*dA*d[5mC]*eT*e[5mC]*eT*eA*eA; antisense) [compound 546872]
percent inhibition of PKK at 0.19 μM [1, 8]: 32% | percent inhibition of PKK at 0.56 μM [1, 8]: 33% | percent inhibition of PKK at 1.67 μM [1, 8]: 82% | percent inhibition of PKK at 5.00 μM [1, 8]: 94% | IC50 [1, 9]: 0.4 µM | percent inhibition of PKK mRNA, 0.19 μM ([1]; HepaRG cells): 42% | percent inhibition of PKK mRNA, 0.56 μM ([1]; HepaRG cells): 13% | percent inhibition of PKK mRNA, 1.67 μM ([1]; HepaRG cells): 59% | percent inhibition of PKK mRNA, 5.00 μM ([1]; HepaRG cells): 99% | IC50 ([1]; HepaRG cells, 0.19-5.00 μM): 1.4 µM | % inhibition [2, 10]: 87%

547364 (eG*eA*eA*e[5mC]*e[5mC]*d[5mC]*dT*dG*dG*d[5mC]*dA*dA*d[5mC]*dA*dT*e[5mC]*e[5mC]*eA*e[5mC]*eA; antisense) [compound 547364]
percent inhibition of PKK at 0.19 μM [1, 11]: 38% | percent inhibition of PKK at 0.56 μM [1, 11]: 47% | percent inhibition of PKK at 1.67 μM [1, 11]: 54% | percent inhibition of PKK at 5.00 μM [1, 11]: 89% | IC50 [1, 12]: 0.6 µM | % inhibition ([2]; Table 7, HepaRG cells, electroporation with 5,000 nM antisense oligonucleotide, approx. 24 hours, PKK mRNA by RT-PCR (RTS3454), relative to untreated control cells): 92%

546829 (eA*eA*e[5mC]*eA*eG*dT*dA*dT*d[5mC]*dA*d[5mC]*dT*dG*dT*dA*e[5mC]*eT*eA*eG*eT; antisense) [compound 546829]
percent inhibition of PKK at 0.19 μM [1, 3]: 3% | percent inhibition of PKK at 0.56 μM [1, 3]: 30% | percent inhibition of PKK at 1.67 μM [1, 3]: 73% | percent inhibition of PKK at 5.00 μM [1, 3]: 88% | IC50 [1, 4]: 1 µM | % inhibition [2, 13]: 94%

546980 (eA*eG*e[5mC]*e[5mC]*e[5mC]*dT*d[5mC]*dA*dA*dT*dT*dG*dT*dT*dG*e[5mC]*eT*eG*eG*eT; antisense) [compound 546980]
percent inhibition of PKK at 0.19 μM [1, 14]: 0% | percent inhibition of PKK at 0.56 μM [1, 14]: 18% | percent inhibition of PKK at 1.67 μM [1, 14]: 29% | percent inhibition of PKK at 5.00 μM [1, 14]: 80% | IC50 [1, 15]: 2.2 µM | % inhibition [2, 16]: 79%

546848 (eT*e[5mC]*eA*e[5mC]*eT*dG*dT*d[5mC]*d[5mC]*dT*dA*dT*dA*dT*d[5mC]*eA*e[5mC]*eT*eG*eT; antisense) [compound 546848]
percent inhibition of PKK at 0.19 μM [1, 8]: 0% | percent inhibition of PKK at 0.56 μM [1, 8]: 18% | percent inhibition of PKK at 1.67 μM [1, 8]: 91% | percent inhibition of PKK at 5.00 μM [1, 8]: 97% | IC50 [1, 9]: 1 µM | % inhibition [2, 13]: 86%

546410 (eG*eA*e[5mC]*eT*eT*dT*dG*dG*dG*dT*dT*dT*d[5mC]*dT*dG*e[5mC]*e[5mC]*eA*eA*e[5mC]; antisense) [compound 546410]
percent inhibition of PKK at 0.19 μM [1, 17]: 13% | percent inhibition of PKK at 0.56 μM [1, 17]: 43% | percent inhibition of PKK at 1.67 μM [1, 17]: 52% | percent inhibition of PKK at 5.00 μM [1, 17]: 75% | IC50 ([1]; 4 point dose response, HepaRG cells, Table 38): 1.2 µM | % inhibition ([2]; HepaRG cells, electroporation, 5,000 nM antisense oligonucleotide, approx. 24 hours, primer probe set RTS3454, relative to untreated control cells, Table 12): 83%

546916 (e[5mC]*eG*eT*e[5mC]*eA*d[5mC]*dT*dG*dT*dA*d[5mC]*d[5mC]*dT*dA*dT*eA*eA*e[5mC]*eT*eG; antisense) [compound 546916]
percent inhibition of PKK at 0.19 μM [1, 6]: 43% | percent inhibition of PKK at 0.56 μM [1, 6]: 71% | percent inhibition of PKK at 1.67 μM [1, 6]: 79% | percent inhibition of PKK at 5.00 μM [1, 6]: 89% | IC50 [1, 7]: 0.2 µM | percent inhibition of PKK mRNA, 0.19 μM ([1]; HepaRG cells): 0% | percent inhibition of PKK mRNA, 0.56 μM ([1]; HepaRG cells): 27% | percent inhibition of PKK mRNA, 1.67 μM ([1]; HepaRG cells): 73% | percent inhibition of PKK mRNA, 5.00 μM ([1]; HepaRG cells): 97% | IC50 ([1]; HepaRG cells, 0.19-5.00 μM): 1 µM | % inhibition [2, 16]: 92%

548756 (antisense eG*eT*eA*eT*d[5mC]*dA*d[5mC]*dT*dG*dT*dA*d[5mC]*dT*eA*eG*eT*eT) [compound 548756]
percent inhibition of PKK at 0.19 μM [1, 14]: 0% | percent inhibition of PKK at 0.56 μM [1, 14]: 4% | percent inhibition of PKK at 1.67 μM [1, 14]: 16% | percent inhibition of PKK at 5.00 μM [1, 14]: 86% | IC50 [1, 15]: > 5 µM | % inhibition [2, 5]: 81%

546854 (eT*eA*eA*e[5mC]*eA*dG*dT*dA*dT*d[5mC]*dA*d[5mC]*dT*dG*dT*e[5mC]*e[5mC]*eT*eA*eT; antisense) [compound 546854]
percent inhibition of PKK at 0.19 μM [1, 11]: 23% | percent inhibition of PKK at 0.56 μM [1, 11]: 39% | percent inhibition of PKK at 1.67 μM [1, 11]: 83% | percent inhibition of PKK at 5.00 μM [1, 11]: 94% | IC50 [1, 12]: 0.6 µM | % inhibition [2, 10]: 90%

546889 (eG*eT*e[5mC]*e[5mC]*eT*dA*dT*dG*dT*d[5mC]*dA*d[5mC]*dT*dG*dT*eA*e[5mC]*e[5mC]*eT*eA; antisense) [compound 546889]
percent inhibition of PKK at 0.19 μM [1, 6]: 23% | percent inhibition of PKK at 0.56 μM [1, 6]: 54% | percent inhibition of PKK at 1.67 μM [1, 6]: 78% | percent inhibition of PKK at 5.00 μM [1, 6]: 91% | IC50 [1, 7]: 0.6 µM | percent inhibition of PKK mRNA, 0.19 μM ([1]; HepaRG cells): 25% | percent inhibition of PKK mRNA, 0.56 μM ([1]; HepaRG cells): 9% | percent inhibition of PKK mRNA, 1.67 μM ([1]; HepaRG cells): 73% | percent inhibition of PKK mRNA, 5.00 μM ([1]; HepaRG cells): 92% | IC50 ([1]; HepaRG cells, 0.19-5.00 μM): 1.4 µM | % inhibition ([2]; human PKK mRNA, HepaRG cells, 5-10-5 motif oligonucleotides targeting SEQ ID NO: 1 and 10): 93%

— patent US11840686B2, “Modulation of prekallikrein (PKK) expression” (Ionis Pharmaceuticals, Inc., priority 2013, dated 2023)
